Test results taken from publication PMC7460603 (International Journal of Molecular Sciences, 2020).
Read-outs that look alike come from different tables or passages of the source.

Tests used:
[1] = cited from earlier work
[2] = biological target: T1, electric eel acetylcholinesterase (eeAChE) (Electrophorus electricus, UniProt O42275); settings: read-out: eeAChE IC50; previously reported; cited from earlier work
human AChE (hAChE) = settings: read-out: hAChE IC50; previously reported; cited from earlier work
[3] = biological target: T2, horse serum butyrylcholinesterase (hsBuChE) (Equus caballus, UniProt P81908); settings: read-out: hsBuChE IC50; previously reported; cited from earlier work
T2 sequence (P81908 whole entry): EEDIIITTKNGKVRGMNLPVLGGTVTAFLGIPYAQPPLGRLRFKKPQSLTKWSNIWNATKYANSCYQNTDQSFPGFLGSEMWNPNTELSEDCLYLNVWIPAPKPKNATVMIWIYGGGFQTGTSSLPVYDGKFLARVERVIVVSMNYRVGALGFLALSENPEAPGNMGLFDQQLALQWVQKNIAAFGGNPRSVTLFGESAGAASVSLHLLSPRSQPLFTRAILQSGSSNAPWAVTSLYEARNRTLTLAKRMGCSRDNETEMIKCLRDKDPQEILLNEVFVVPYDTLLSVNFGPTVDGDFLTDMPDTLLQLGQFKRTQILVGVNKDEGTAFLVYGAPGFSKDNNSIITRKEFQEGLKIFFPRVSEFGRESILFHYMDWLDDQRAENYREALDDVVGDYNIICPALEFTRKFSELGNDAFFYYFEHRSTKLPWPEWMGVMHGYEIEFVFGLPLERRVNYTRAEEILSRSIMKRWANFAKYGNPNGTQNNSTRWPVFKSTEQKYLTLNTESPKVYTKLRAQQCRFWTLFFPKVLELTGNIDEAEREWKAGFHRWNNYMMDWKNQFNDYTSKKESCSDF

neuromuscular transition = settings: at pharmaceutically relevant concentrations; cited from earlier work
human serum albumin = settings: cited from earlier work
NHEK-1 cells = settings: non-cancer cells; cited from earlier work
HUVEC cells = settings: non-cancer cells; cited from earlier work
[4] = biological target: T2, horse serum butyrylcholinesterase (hsBuChE); assay: biochemical; type: biochemical; parameters: purchased Sigma, St. Louis, MO, USA; host or cells: horse serum; settings: for Ki: three substrate concentrations (0.125, 0.25, 0.5 mM)
Procedure: (§1) Cholinesterase activities were measured by the Ellman method adapted for microtiter plates, as described in Ristovski et al.. Stock solutions of the prepared ruthenium compounds (1 mg/mL) or neostigmine bromide (Sigma-Aldrich, St. Louis, MO, USA) as a positive control were prepared in 100% ethanol and progressively diluted in 100 mM potassium phosphate buffer (pH 7.4) to a final volume of 50 µL. Then, 1 mM acetylthiocholine chloride and 0.5 mM 5,5′-dithiobis-2-nitrobenzoic acid were dissolved in the same buffer and added to the wells of the microtiter plates to the final volume of 150 μL. Electric eel acetylcholinesterase (eeAChE) or horse serum BChE (hsBuChE) (both Sigma, St. Louis, MO, USA) were dissolved in the same buffer to 0.0075 U/mL. Fifty μL of each of the cholinesterases was added to start the reactions, which were followed spectrophotometrically at 405 nm and 25 °C for 5 min using a kinetic microplate reader (Dynex Technologies, Chantilly, VA, USA). Blank reactions without the inhibitors were run in the presence of the appropriate dilution of ethanol. Every measurement was repeated at least three times. For determination of the inhibitory constants, the kinetics were monitored using three different final substrate concentrations (0.125, 0.25, 0.5 mM).

immunoglobulins G = settings: human serum; cited from earlier work
[5] = biological target: T1, electric eel acetylcholinesterase (eeAChE); assay: biochemical; type: biochemical; parameters: purchased Sigma, St. Louis, MO, USA; settings: for Ki: three substrate concentrations (0.125, 0.25, 0.5 mM)
Procedure: as §1

[6] = system: glutathione-S-transferase; settings: cited from earlier work
[7] = phosphate buffer solution, cultural media RPMI and FP-RPMI, plasma; cited from earlier work
[8] = ESI-MS stability in solution; settings: positive ion mode, direct infusion; immediately before measurement and after three days
[9] = 1H NMR stability in aqueous media
Procedure: All assays were carried out immediately after the solution preparation.

[10] = concentration inducing 50% inhibition of enzyme activity, mean ± SEM of three independent measurements, / = no activity, read-out: hsBuChE IC50
[11] = concentration inducing 50% inhibition of enzyme activity, mean ± SEM of three independent measurements, / = no activity, read-out: eeAChE IC50
[12] = read-out: hsBuChE IC50, concentration inducing 50% inhibition of enzyme activity, mean ± SEM of three independent measurements, / = no activity
[13] = read-out: eeAChE IC50, concentration inducing 50% inhibition of enzyme activity, mean ± SEM of three independent measurements, / = no activity

T1 sequence (O42275 24-633): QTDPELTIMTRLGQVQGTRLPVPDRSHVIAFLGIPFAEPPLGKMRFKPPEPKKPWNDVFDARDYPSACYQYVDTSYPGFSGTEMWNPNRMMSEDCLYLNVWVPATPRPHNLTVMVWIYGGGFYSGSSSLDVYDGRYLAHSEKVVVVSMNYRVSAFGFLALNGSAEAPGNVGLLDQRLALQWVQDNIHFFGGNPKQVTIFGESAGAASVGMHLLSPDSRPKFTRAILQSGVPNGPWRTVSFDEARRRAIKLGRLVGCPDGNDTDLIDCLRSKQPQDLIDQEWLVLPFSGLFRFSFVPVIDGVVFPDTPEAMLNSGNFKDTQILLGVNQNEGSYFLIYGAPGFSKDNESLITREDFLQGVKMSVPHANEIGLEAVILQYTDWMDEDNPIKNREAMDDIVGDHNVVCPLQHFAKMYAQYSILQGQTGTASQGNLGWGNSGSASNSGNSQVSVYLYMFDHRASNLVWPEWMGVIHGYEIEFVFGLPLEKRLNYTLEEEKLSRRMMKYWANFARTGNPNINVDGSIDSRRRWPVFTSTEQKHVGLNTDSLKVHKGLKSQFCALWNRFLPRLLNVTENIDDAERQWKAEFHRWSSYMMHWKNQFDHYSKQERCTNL

Row | Molecule | IC50 [4, 10] [µM] | Ki [4] [µM] | IC50 [5, 11] [µM] | Ki [5] [µM] | other results
1 | Cc1ccc(C(C)C)cc1.[Cl][Ru+].[O-]n1ccccc1=S [Compound 1a] | 2.3 ± 0.1 | 0.5 | 7.8 ± 0.8 | 15.1 | stability in D2O solution containing NaCl [1]: confirmed the stability; stability in DMSO-d6/D2O (1H NMR) [1]: stable; IC50 [2]: 5.01 µM; IC50 (human AChE (hAChE)): 25.1 µM; IC50 [3]: 7.52 µM; physiological response on the neuromuscular transition (neuromuscular transition): did not express any unwanted physiological response; fraction interacting with human serum albumin (human serum albumin): 70%; fraction remaining unbound (human serum albumin): 25%; cytotoxicity against NHEK-1 cells (NHEK-1 cells): no cytotoxicity; cytotoxicity against HUVEC cells (HUVEC cells): no cytotoxicity; fraction interacting with immunoglobulins G (immunoglobulins G): 5%; inhibition of glutathione-S-transferase [6]: inhibited
2 | Cc1ccc(C(C)C)cc1.Cc1cccn([O-])c1=S.[Cl-].[Ru+2] [Compound 1b] | 1.2 ± 0.02 | 0.4 | 10.5 ± 0.7 | 9.7 | stability in aqueous media (UV-Vis) [7]: stable; stability in aqueous solution (ESI-MS, [M − Cl]+ ion) [8]: same spectrum
3 | Cc1ccc(C(C)C)cc1.Cc1ccn([O-])c(=S)c1.[Cl-].[Ru+2] [Compound 1c] | 2.7 ± 0.8 | 0.9 | 9.5 ± 1.1 | 8.5 | 
4 | Cc1ccc(=S)n([O-])c1.Cc1ccc(C(C)C)cc1.[Cl-].[Ru+2] [Compound 1d] | 1.9 ± 0.4 | 0.4 | 6.6 ± 0.5 | 9.7 | 
5 | Cc1ccc(C(C)C)cc1.Cc1cccc(=S)n1[O-].[Cl-].[Ru+2] [Compound 1e] | 0.7 ± 0.1 | 3.4 | 5.1 ± 0.4 | 4.9 | stability under enzymatic assay conditions (1H NMR) ([9]; 6.25% EtOH-d6/D2O, 80.2 mM K2HPO4 and 19.8 mM KH2PO4, immediately and after one hour): remain stable; stability in D2O containing 140 mM NaCl (1H NMR) ([9]; after one day): negligible changes; stability in D2O (1H NMR) ([9]; immediately and after three days): remain the main present species
6 | Cc1ccc(C(C)C)cc1.[Cl][Ru+].[O-]n1ccc2ccccc2c1=S [Compound 1f, [(η^6-p-Cymene)Ru(2-hydroxyisoquinoline-1-(2H)-thionato)Cl]] | 1.3 ± 0.1 | 0.4 | 8.1 ± 0.5 | 12.3 | 
7 | CN(C)C(=O)Oc1cccc([N+](C)(C)C)c1 [Neostigmine bromide, reference compound] |  |  |  |  | IC50 [4]: 37.3 ± 4.2 µM; IC50 [5]: 4.3 ± 0.8 µM
8 | On1ccccc1=S [a, 1-hydroxypyridine-2(1H)-thione] |  |  |  |  | IC50 [4, 12]: > 100 µM; IC50 [5, 13]: > 100 µM
9 | Cc1cccn(O)c1=S [b] |  |  |  |  | IC50 [4, 12]: > 100 µM; IC50 [5, 13]: > 100 µM
10 | Cc1ccn(O)c(=S)c1 [c] |  |  |  |  | IC50 ([4]; read-out: hsBuChE IC50): > 100 µM; IC50 ([5]; read-out: eeAChE IC50): > 100 µM
11 | Cc1ccc(=S)n(O)c1 [d] |  |  |  |  | IC50 [4, 12]: > 100 µM; IC50 [5, 13]: > 100 µM
12 | Cc1cccc(=S)n1O [e] |  |  |  |  | IC50 [4]: > 100 µM; IC50 [5, 13]: > 100 µM
13 | On1ccc2ccccc2c1=S [f, 2-Hydroxyisoquinoline-1-(2H)-thione] |  |  |  |  | IC50 [4, 12]: > 100 µM; IC50 [5, 13]: > 100 µM
14 | On1c(=S)ccc2ccccc21 [g, 1-Hydroxyquinoline-2-(1H)-thione] | > 100 |  | > 100 |  | 
15 | On1cc2ccccc2cc1=S [h, 2-Hydroxyisoquinoline-3-(2H)-thione] | 53 |  | > 100 |  | activity against hsBuChE (in words) [4]: poorly active; activity against eeAChE (in words) [5]: poorly active
16 | [(η^6-p-Cymene)Ru(1-hydroxyquinoline-2-(1H)-thionato)Cl] [Compound 1g] | 0.2 ± 0.05 | 0.2 | 4.9 ± 0.1 | 5.6 | 
17 | [(η^6-p-Cymene)Ru(2-hydroxyisoquinoline-3-(2H)-thionato)Cl] [Compound 1h] | 0.7 ± 0.1 | 0.2 | 14.3 ± 2 | 20.1 | 
